Test results from patent EP0533084A1, “Pharmaceutical compositions comprising natriuretic peptides or neutral endopeptidase inhibitors for treating and preventing myointimal proliferation” (SCHERING CORPORATION, priority 1991, dated 1993).

Test system: carotid artery intimal proliferation
Assay: balloon catheter injury of the left carotid artery in spontaneously hypertensive rats; morphometric and DNA analyses of intimal proliferation 14 days post-injury
Assay type: in vivo, male spontaneously hypertensive rats
Conditions: SHR, means ± SEM
Protocol: Briefly, rats were anesthetized with Metofane (methoxyflurane) and a 2 Fr Fogarty embolectomy catheter was inserted into the left external carotid artery. The catheter was advanced 5 cm, inflated and retracted 3 times, turning the catheter 90^o each time. […] Animals were autopsied following exsanguination with ketamine (40 mg/kg) plus xylazine (10 mg/kg) i.m. anesthesia at specified timepoints following balloon injury.
Standard samples of the control right and balloon injured left carotid arteries were taken for DNA and morphometric analyses. […] The DNA results were expressed as the ratio of the left or ballooned carotid to the right control carotid. Three samples were taken for histology at 2.5 mm intervals cephalad from the DNA sample from each carotid artery and fixed in 4% paraformaldehyde containing 10% sucrose (wt/vol). Paraffin-embedded sections were stained with the Gomori trichrome-aldehyde fuchsin stain and computer-assisted morphometric analyses were performed using a Bioquant System IV image analyzer (R&M Biometrics Inc.). Morphometric measurements included: maximal intimal thickness (mm), intimal cross sectional area (mm²), and intimal cross sectional area/medial cross sectional area. […]

[1] = Exp. 5A, 10 mpk once a day, control see Exp. 1A

CC1(C)OCC(COC(=O)[C@H](Cc2ccccc2)N[C@@H](Cc2ccccc2)C(=O)NCCC(=O)O)O1 (stereo partly drawn) [compound A, N-[N-[(L)-[1-[(2,2-dimethyl-1,3-dioxolan-4-yl)methoxy]carbonyl]-2-phenylethyl]-L-phenylalanyl]-ß-alanine]
Carotid DNA (ballooned/ control) (Exp. 1, 90 mpk b.i.d.): 3.16 ±0.35
Intimal Area (Exp. 1, 90 mpk b.i.d.): 0.99 ±0.010 mm^2
Intimal Area/ Medial Area (Exp. 1, 90 mpk b.i.d.): 0.653 ±0.067
Maximal Intimal Thickness (Exp. 1, 90 mpk b.i.d.): 0.104 ±0.011 mm
Carotid DNA (ballooned/ control) (Exp. 1A, 90 mpk b.i.d.): 4.60 ±0.67
Intimal Area (Exp. 1A, 90 mpk b.i.d.): 0.099 ±0.010 mm^2
Intimal Area/ Medial Area (Exp. 1A, 90 mpk b.i.d.): 0.692 ±0.066
Maximal Intimal Thickness (Exp. 1A, 90 mpk b.i.d.): 0.110 ±0.010 mm

CCOC(=O)[C@H](CCSC)NC(=O)C(CSC(C)=O)Cc1ccccc1C (stereo partly drawn) [compound B, N-[2-acetylthiomethyl-3-(2-methylphenyl)-propionyl]-methionine ethyl ester]
Carotid DNA (ballooned/ control) (Exp. 2, 30 mpk b.i.d.): 3.47 ±0.40
Intimal Area (Exp. 2, 30 mpk b.i.d.): 0.071 ±0.010 mm^2
Intimal Area/ Medial Area (Exp. 2, 30 mpk b.i.d.): 0.441 ±0.052
Maximal Intimal Thickness (Exp. 2, 30 mpk b.i.d.): 0.085 ±0.009 mm
Carotid DNA (ballooned/ control) (Exp. 2A, 10 mpk b.i.d.): 3.12 ±0.22
Intimal Area (Exp. 2A, 10 mpk b.i.d.): 0.106 ±0.010 mm^2
Intimal Area/ Medial Area (Exp. 2A, 10 mpk b.i.d.): 0.719 ±0.062
Maximal Intimal Thickness (Exp. 2A, 10 mpk b.i.d.): 0.112 ±0.012 mm
Carotid DNA (ballooned/ control) (Exp. 4, 10 mpk b.i.d.): 4.38 ±0.73
Intimal Area (Exp. 4, 10 mpk b.i.d.): 0.085 ±0.009 mm^2
Intimal Area/ Medial Area (Exp. 4, 10 mpk b.i.d.): 0.592 ±0.067
Maximal Intimal Thickness (Exp. 4, 10 mpk b.i.d.): 0.095 ±0.012 mm

CCOC(=O)[C@H](CCc1ccccc1)N[C@@H](C)C(=O)N1CC2(C[C@H]1C(=O)O)SCCS2 [compound D, spirapril, reference compound]
Carotid DNA (ballooned/ control) [1]: 1.94 ±0.32
Intimal Area [1]: 0.064 ±0.005 mm^2
Intimal Area/ Medial Area [1]: 0.500 ±0.049
Maximal Intimal Thickness [1]: 0.082 ±0.010 mm
